Laboratory results from article PMC11247499, “2,8-Disubstituted-1,5-naphthyridines as Dual Inhibitors of Plasmodium falciparum Phosphatidylinositol-4-kinase and Hemozoin Formation with In Vivo Efficacy” (Journal of Medicinal Chemistry, 2024).
≈ marks a conversion by molar mass, not a printed value. Where “and” joins values, the source holds several entries; their conditions need not be identical. Identical values can stand only once. Like-named read-outs stand apart in the source and are kept apart here.

Columns and labels:
[1] = Solubility, miniaturized shake flask method
[2] = tested on: Chinese Hamster Ovary (CHO) cell line; assay: cells; type: cell-based; conditions: Cricetulus griseus, CHO; MTT assay over 48h; read-out: CHO IC50
LogD shake-flask = type: physicochemical; conditions: n-octanol/phosphate buffer (1:1), phosphate buffer (pH 7.4) / n-octanol
β-hematin (βH) formation = assay: NP-40 mediated cell-free β-hematin assay; conditions: read-out: β-hematin IC50; cell-free NP-40 detergent-mediated assay; n = 2
[3] = tested on: multidrug-resistant strain, K1; assay: Antiplasmodial activity, parasite lactate dehydrogenase assay, K1; type: cell-based, Plasmodium falciparum; conditions: Plasmodium falciparum, K1, 72 h, parasite lactate dehydrogenase assay over 72 h; read-out: Pf IC50 ± SD K1
Dd2_PI4K_CNV = assay: microbe, parasite or virus in culture; type: cell-based; conditions: Plasmodium falciparum, 72 h, read-out: Dd2_PI4K_CNV IC50
hERG channels = biological target: T1, hERG channels (Homo sapiens, UniProt Q12809); assay: hERG inhibition, QPatch automated patch clamp assay; type: cell-based; conditions: CHO cells stably expressing the hERG channels
T1 construct: expressed in transfected cells; host or cells: CHO cells

PvPI4K = PvPI4K (Plasmodium vivax, UniProt A5KB26); assay: biochemical; conditions: purified recombinant PvPI4K, 10 μM ATP, ADP-Glo; mean of N ≥ 2; read-out: PvPI4K IC50 ± SD
Dd2 = assay: microbe, parasite or virus in culture; type: cell-based; conditions: Plasmodium falciparum, DD2, 72 h, read-out: Dd2 IC50 ± SD
pKa of piperidine N = type: physicochemical
[4] = tested on: P. falciparum NF54 strain; assay: Antiplasmodial activity, parasite lactate dehydrogenase assay, NF54; type: cell-based, Plasmodium falciparum; conditions: parasite lactate dehydrogenase assay over 72 h, read-out: Pf IC50 ± SD NF54
[5] = In vitro microsomal stability, mouse; type: in vitro ADME; conditions: mouse liver microsomes, pH 7.4, read-out: microsomal CLint, app mouse
cytochrome P450 2D6 = cytochrome P450 2D6 (Homo sapiens, UniProt P10635); assay: Cytochrome P450 inhibition, 2D6; type: in vitro ADME
From the text: Table 10 In Vitro and In Vivo Pharmacokinetic Parameters ^a | column: 14

[6] = Plasma protein binding, mouse; type: in vitro ADME; conditions: read-out: PPB fu, mouse
cytochrome P450 3A4 = cytochrome P450 3A4 (Homo sapiens, UniProt P08684); assay: Cytochrome P450 inhibition, 3A4; type: in vitro ADME
P. falciparum = assay: In vitro resistance selection under sustained drug pressure; type: cell-based, Plasmodium falciparum; conditions: sustained drug pressure at 3 × IC90 for 60 days in vitro (data not shown)
HuMAP4K4 = HuMAP4K4 (Homo sapiens, UniProt O95819); assay: Human kinase inhibition, HuMAP4K4; conditions: read-out: HuMAP4K4, IC50
cytochrome P450 2C19 = cytochrome P450 2C19 (Homo sapiens, UniProt P33261); assay: Cytochrome P450 inhibition, 2C19; type: in vitro ADME
[7] = Mouse pharmacokinetic studies; conditions: male, BalbC; for Vd at 24 h / half-life at 24 h / bioavailability at 24 h: in vivo; for Vd at 24 h / half-life at 24 h / in vivo mouse CLb: iv, 2 mg/kg; for bioavailability at 24 h: po
[8] = tested on: P. falciparum PI4K conditional knockdown line; assay: microbe, parasite or virus in culture; type: cell-based, Plasmodium falciparum; conditions: for IC50: Plasmodium falciparum; for ABS IC50 for PfPI4K cKD, N=1, fold shift: experiment N=1; for ABS IC50 for PfPI4K cKD, N=1, fold shift / ABS IC50 for PfPI4K cKD, N=2, fold shift / ABS IC50 for PfPI4K cKD, N=3, fold shift / ABS IC50 for PfPI4K cKD, mean fold shift (fold decrease in IC50 on knockdown): +aTc vs no aTc; for ABS IC50 for PfPI4K cKD, N=2, fold shift: experiment N=2; for ABS IC50 for PfPI4K cKD, N=3, fold shift: experiment N=3
[9] = In vitro microsomal stability, human; type: in vitro ADME; conditions: pooled human liver microsomes, pH 7.4, read-out: microsomal CLint, app human
[10] = In vitro microsomal stability, rat; type: in vitro ADME; conditions: rat liver microsomes, pH 7.4, read-out: microsomal CLint, app rat
cytochrome P450 2C9 = cytochrome P450 2C9 (Homo sapiens, UniProt P11712); assay: Cytochrome P450 inhibition, 2C9; type: in vitro ADME
HuPI3Kα = HuPI3Kα (Homo sapiens, UniProt P42336); assay: Human kinase inhibition, HuPI3Kα; conditions: read-out: HuPI3Kα, IC50
HuMINK1 = HuMINK1 (Homo sapiens, UniProt Q8N4C8); assay: Human kinase inhibition, HuMINK1; conditions: read-out: HuMINK1, IC50
HuPI4Kβ = HuPI4Kβ (Homo sapiens, UniProt Q9UBF8); assay: Human kinase inhibition, HuPI4Kβ; conditions: read-out: HuPI4Kβ, IC50
[11] = Plasma protein binding, human; type: in vitro ADME; conditions: pooled human plasma, read-out: PPB fu, human
Caco-2 permeability = type: in vitro ADME; conditions: human
[12] = Plasmodium falciparum, NF54, 72 h
[13] = 72 h, read-out: ABS IC50 for PfPI4K cKD, N=1, +aTc, experiment N=1, +aTc (500 nM, control conditions), 72 hours
[14] = 72 h, read-out: ABS IC50 for PfPI4K cKD, N=1, no aTc, experiment N=1, no aTc (PI4K knockdown), 72 hours
[15] = 72 h, read-out: ABS IC50 for PfPI4K cKD, N=2, +aTc, experiment N=2, +aTc (500 nM, control conditions), 72 hours
[16] = 72 h, read-out: ABS IC50 for PfPI4K cKD, N=2, no aTc, experiment N=2, no aTc (PI4K knockdown), 72 hours
[17] = 72 h, read-out: ABS IC50 for PfPI4K cKD, N=3, +aTc, experiment N=3, +aTc (500 nM, control conditions), 72 hours
[18] = 72 h, read-out: ABS IC50 for PfPI4K cKD, N=3, no aTc, experiment N=3, no aTc (PI4K knockdown), 72 hours
[19] = read-out: ABS IC50 for PfPI4K cKD, Mean + SD, +aTc, mean of N=3, +aTc (control conditions)
[20] = read-out: ABS IC50 for PfPI4K cKD, Mean + SD, no aTc, mean of N=3, no aTc (PI4K knockdown)

Chain of PvPI4K (A5KB26 entry or part of it): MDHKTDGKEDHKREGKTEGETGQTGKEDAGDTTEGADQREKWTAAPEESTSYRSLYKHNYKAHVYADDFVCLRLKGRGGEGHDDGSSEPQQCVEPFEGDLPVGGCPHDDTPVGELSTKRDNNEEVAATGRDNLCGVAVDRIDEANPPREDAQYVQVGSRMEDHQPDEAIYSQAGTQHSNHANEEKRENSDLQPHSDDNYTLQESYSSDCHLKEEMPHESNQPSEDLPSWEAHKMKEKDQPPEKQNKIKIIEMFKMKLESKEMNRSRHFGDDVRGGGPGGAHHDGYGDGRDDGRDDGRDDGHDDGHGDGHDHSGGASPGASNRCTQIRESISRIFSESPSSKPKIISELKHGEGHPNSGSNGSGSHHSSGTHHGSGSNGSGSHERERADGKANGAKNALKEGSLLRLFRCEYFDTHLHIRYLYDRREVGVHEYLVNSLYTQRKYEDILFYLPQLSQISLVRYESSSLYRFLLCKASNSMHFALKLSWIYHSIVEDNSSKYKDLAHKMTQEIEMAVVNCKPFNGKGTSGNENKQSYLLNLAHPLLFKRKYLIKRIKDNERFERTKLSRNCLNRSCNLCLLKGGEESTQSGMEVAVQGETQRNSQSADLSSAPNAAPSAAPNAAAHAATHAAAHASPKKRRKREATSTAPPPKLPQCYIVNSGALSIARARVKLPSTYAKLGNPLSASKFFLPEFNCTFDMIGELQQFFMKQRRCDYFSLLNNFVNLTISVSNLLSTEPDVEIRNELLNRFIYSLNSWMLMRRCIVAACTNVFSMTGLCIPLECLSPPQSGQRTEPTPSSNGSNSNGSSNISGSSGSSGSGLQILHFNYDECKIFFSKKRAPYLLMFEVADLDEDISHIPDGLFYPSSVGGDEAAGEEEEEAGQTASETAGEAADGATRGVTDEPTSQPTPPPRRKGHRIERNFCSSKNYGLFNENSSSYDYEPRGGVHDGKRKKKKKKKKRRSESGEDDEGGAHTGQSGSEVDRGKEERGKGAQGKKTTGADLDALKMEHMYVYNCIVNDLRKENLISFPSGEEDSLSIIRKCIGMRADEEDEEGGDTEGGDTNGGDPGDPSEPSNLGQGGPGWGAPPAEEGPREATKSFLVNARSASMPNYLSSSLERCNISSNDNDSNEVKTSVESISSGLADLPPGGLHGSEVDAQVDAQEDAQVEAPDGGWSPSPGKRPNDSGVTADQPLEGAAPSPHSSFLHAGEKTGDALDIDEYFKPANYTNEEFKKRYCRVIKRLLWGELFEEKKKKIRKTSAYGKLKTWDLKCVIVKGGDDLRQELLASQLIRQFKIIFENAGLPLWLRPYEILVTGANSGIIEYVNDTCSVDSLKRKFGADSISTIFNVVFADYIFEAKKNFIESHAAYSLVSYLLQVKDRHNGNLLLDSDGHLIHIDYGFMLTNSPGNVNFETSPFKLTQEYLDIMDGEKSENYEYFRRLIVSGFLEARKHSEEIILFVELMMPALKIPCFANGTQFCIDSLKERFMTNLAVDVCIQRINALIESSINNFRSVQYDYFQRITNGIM
Chain of cytochrome P450 2C19 (P33261 whole entry): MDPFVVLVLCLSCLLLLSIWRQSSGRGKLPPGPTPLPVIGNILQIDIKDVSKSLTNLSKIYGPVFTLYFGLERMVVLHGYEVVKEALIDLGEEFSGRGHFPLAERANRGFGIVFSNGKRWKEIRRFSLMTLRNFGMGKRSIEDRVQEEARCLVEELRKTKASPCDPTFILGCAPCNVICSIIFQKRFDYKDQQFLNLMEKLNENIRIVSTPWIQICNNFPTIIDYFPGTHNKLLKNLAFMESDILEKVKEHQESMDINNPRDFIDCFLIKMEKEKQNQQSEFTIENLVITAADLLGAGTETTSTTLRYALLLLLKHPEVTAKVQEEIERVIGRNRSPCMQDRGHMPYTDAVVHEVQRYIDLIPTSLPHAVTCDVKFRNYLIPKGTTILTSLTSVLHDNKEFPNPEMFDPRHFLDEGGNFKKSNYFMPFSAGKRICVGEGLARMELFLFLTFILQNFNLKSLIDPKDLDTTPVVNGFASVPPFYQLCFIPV
Chain of cytochrome P450 3A4 (P08684 whole entry): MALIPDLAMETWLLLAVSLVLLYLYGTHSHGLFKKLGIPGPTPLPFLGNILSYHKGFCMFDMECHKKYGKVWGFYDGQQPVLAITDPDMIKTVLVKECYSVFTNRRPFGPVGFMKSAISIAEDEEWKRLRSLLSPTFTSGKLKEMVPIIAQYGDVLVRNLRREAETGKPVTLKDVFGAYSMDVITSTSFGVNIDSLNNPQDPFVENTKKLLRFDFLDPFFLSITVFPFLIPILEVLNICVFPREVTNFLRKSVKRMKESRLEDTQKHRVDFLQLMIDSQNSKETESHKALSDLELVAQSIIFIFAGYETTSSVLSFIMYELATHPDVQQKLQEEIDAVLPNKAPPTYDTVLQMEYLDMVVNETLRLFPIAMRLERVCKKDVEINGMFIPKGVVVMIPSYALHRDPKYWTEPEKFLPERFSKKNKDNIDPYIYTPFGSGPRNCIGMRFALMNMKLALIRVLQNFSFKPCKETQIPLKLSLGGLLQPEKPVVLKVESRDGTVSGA
Chain of HuMINK1 (Q8N4C8 whole entry): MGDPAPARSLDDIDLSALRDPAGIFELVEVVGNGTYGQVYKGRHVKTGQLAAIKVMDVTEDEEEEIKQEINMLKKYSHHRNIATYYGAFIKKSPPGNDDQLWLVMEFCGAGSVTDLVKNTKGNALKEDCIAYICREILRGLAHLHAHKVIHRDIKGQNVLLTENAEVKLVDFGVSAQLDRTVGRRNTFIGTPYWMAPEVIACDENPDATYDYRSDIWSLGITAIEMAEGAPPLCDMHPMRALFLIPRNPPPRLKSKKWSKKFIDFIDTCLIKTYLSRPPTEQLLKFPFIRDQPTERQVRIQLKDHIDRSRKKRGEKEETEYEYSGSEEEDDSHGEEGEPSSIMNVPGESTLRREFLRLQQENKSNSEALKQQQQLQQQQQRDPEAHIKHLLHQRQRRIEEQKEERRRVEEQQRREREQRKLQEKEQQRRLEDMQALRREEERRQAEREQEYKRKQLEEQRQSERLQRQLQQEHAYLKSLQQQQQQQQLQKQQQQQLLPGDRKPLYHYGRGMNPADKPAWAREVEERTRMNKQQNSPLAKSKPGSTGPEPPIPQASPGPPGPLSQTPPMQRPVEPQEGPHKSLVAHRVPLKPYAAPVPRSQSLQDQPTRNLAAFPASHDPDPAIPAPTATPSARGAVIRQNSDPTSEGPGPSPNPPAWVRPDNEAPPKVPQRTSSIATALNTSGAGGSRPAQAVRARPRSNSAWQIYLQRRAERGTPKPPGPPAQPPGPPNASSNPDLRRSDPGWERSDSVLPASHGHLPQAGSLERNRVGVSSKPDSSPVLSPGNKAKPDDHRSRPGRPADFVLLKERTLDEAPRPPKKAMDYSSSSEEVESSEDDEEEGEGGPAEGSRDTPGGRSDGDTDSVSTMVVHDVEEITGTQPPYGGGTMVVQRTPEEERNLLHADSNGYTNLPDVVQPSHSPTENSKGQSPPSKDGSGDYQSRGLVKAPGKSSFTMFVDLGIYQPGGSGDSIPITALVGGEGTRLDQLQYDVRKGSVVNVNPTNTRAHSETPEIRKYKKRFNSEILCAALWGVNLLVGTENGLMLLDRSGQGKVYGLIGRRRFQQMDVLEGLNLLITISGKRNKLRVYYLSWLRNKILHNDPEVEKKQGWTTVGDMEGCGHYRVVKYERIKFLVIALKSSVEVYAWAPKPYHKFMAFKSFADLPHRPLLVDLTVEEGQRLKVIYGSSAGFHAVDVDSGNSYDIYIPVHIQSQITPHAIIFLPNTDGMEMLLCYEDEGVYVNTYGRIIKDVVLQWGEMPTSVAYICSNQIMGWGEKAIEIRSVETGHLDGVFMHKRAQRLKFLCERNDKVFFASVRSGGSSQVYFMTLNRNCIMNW
Chain of cytochrome P450 2C9 (P11712 whole entry): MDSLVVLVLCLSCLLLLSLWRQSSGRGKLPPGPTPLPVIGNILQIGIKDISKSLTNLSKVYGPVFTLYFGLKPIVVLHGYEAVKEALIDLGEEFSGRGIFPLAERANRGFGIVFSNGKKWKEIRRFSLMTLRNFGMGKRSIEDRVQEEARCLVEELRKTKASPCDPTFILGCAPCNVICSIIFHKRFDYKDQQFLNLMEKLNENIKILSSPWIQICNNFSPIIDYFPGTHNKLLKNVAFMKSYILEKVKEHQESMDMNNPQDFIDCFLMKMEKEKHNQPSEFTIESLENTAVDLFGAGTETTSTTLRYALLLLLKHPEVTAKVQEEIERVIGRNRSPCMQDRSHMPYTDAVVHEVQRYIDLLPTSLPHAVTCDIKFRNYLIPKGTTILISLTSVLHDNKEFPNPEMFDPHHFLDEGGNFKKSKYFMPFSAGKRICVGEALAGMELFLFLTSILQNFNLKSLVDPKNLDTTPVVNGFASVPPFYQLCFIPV
Chain of cytochrome P450 2D6 (P10635 whole entry): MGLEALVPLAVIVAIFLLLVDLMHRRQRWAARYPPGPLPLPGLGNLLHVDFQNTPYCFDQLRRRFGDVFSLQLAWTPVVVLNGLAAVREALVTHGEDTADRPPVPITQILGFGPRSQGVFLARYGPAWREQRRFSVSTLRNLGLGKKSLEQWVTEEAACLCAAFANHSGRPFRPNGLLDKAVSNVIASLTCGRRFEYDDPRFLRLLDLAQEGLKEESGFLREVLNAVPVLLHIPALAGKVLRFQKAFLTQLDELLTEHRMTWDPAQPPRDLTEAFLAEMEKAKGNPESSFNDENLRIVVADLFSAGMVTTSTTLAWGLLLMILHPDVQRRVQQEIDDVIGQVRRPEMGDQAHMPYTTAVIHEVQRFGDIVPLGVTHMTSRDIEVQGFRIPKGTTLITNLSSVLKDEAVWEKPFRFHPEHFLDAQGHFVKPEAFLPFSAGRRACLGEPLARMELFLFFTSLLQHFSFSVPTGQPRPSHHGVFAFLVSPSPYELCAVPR

| Structure (SMILES) | solubility at 20 h ([1]; aqueous solution) | IC50 [2] | logD at 3 h (LogD shake-flask) | IC50 (β-hematin (βH) formation) | IC50 [3] | IC50 (Dd2_PI4K_CNV) | IC50 (PvPI4K) | IC50 (Dd2) | IC50 [4, 12] | solubility at 20 h ([1]; PBS, pH 6.5) | CLint scaled at 1 µM [5] | IC50 (cytochrome P450 3A4) | IC50 (HuMAP4K4) | IC50 (cytochrome P450 2C19) | in vivo mouse CLu [7] | Vd at 24 h [7] | half-life at 24 h [7] | bioavailability at 24 h [7] | in vivo mouse CLb [7] | IC50 [8, 13] | other results |
| --- | --- | --- | --- | --- | --- | --- | --- | --- | --- | --- | --- | --- | --- | --- | --- | --- | --- | --- | --- | --- | --- |
| O[C@H]1CNCC[C@H]1Nc1ccnc2ccc(-c3ccc(C(F)(F)F)nc3)nc12 (relative stereo) [Compound 27, rac-cis-4-[[6-[6-(Trifluoromethyl)pyridin-3-yl]-1,5-naphthyridin-4-yl]amino]piperidin-3-ol] | 200 µM (≈ 77.9 µg/mL) | 33000 nM | 1.02 | 140000 ± 7000 nM | 334 ± 147 nM | 381 ± 17 nM | 370 ± 175 nM | 437 ± 71 nM | 140 nM | – | – | – | – | – | – | – | – | – | – | – | IC50 (hERG channels): 24500 nM; pKa (pKa of piperidine N): 8.99; IC50 [4]: 130 ± 24 nM |
| N[C@H]1CCN(c2ccnc3ccc(-c4ccc(C(F)(F)F)nc4)nc23)C1 [Compound 14, (3S)-1-[6-[6-(Trifluoromethyl)pyridin-3-yl]-1,5-naphthyridin-4-yl]pyrrolidin-3-amine] | 200 µM (≈ 71.9 µg/mL) | 12000 nM | – | 33000 nM and < 60000 nM | 87 ± 30 nM | 41 ± 10 nM | 1210 ± 220 nM | 46 ± 20 nM | 31 ± 3 nM | 200 µM (≈ 71.9 µg/mL) | < 46 mL/min/kg | > 20000 nM | > 10000 nM | 18000 nM | 135 mL/min/kg | 4.4 L/kg | 6.3 h | 27% | 10.80 mL/min/kg | 23 nM | IC50 (cytochrome P450 2D6): > 20000 nM; fraction unbound at 5 h, 5 µM [6]: 0.08; Attempts to raise mutants (P. falciparum): not successful; IC50 [8, 14]: 25 nM; IC50 [8, 15]: 37 nM; IC50 [8, 16]: 38 nM; IC50 [8, 17]: 21 nM; IC50 [8, 18]: 20 nM; IC50 [8, 19]: 27 ± 9 nM; IC50 [8, 20]: 28 ± 9 nM; ABS IC50 for PfPI4K cKD, N=1, fold shift [8]: 0.90 fold; ABS IC50 for PfPI4K cKD, N=2, fold shift [8]: 0.98 fold; ABS IC50 for PfPI4K cKD, N=3, fold shift [8]: 1.04 fold; ABS IC50 for PfPI4K cKD, mean fold shift (fold decrease in IC50 on knockdown) [8]: 0.97 fold; CLint scaled at 1 µM [9]: < 13 mL/min/kg; CLint scaled at 1 µM [10]: < 21 mL/min/kg; IC50 (cytochrome P450 2C9): > 20000 nM; IC50 (HuPI3Kα): 5200 nM; IC50 (HuMINK1): > 10000 nM; IC50 (HuPI4Kβ): > 10000 nM |
| FC(F)(F)c1ccc(-c2ccc3nccc(N[C@@H]4CCNC4)c3n2)cn1 [Compound 16, N-[(3R)-Pyrrolidin-3-yl]-6-[6-(trifluoromethyl)pyridin-3-yl]-1,5-naphthyridin-4-amine] | 200 µM (≈ 71.9 µg/mL) | > 50000 nM | 0.96 | 32000 nM and < 60000 nM | – | – | 66 ± 21 nM | – | 86 ± 16 nM | 195 µM (≈ 70.1 µg/mL) | < 467 mL/min/kg | > 20000 nM | > 10000 nM | > 20000 nM | 76 mL/min/kg | 3.1 L/kg | 2.7 h | 96% | 13.70 mL/min/kg | 71 nM | fraction unbound at 5 h, 5 µM [11]: 0.18; efflux ratio (Caco-2 permeability): 13; Papp A→B (Caco-2 permeability; A > B): 2.6 ×10⁻⁶ cm/s; IC50 [8, 14]: 72 nM; IC50 [8, 15]: 118 nM; IC50 [8, 16]: 118 nM; IC50 [8, 17]: 63 nM; IC50 [8, 18]: 72 nM; IC50 [8, 19]: 84 ± 30 nM; IC50 [8, 20]: 88 ± 27 nM; ABS IC50 for PfPI4K cKD, N=1, fold shift [8]: 0.98 fold; ABS IC50 for PfPI4K cKD, N=2, fold shift [8]: 1.00 fold; ABS IC50 for PfPI4K cKD, N=3, fold shift [8]: 0.88 fold; ABS IC50 for PfPI4K cKD, mean fold shift (fold decrease in IC50 on knockdown) [8]: 0.95 fold; CLint scaled at 1 µM [9]: < 13 mL/min/kg; CLint scaled at 1 µM [10]: < 21 mL/min/kg; IC50 (cytochrome P450 2C9): > 20000 nM; IC50 (HuPI3Kα): 8900 nM; IC50 (HuMINK1): > 10000 nM; IC50 (HuPI4Kβ): > 10000 nM |
